Patent US12655116B2, “Substituted isophthalic acid diamides” (Bayer Aktiengesellschaft, priority 2020, dated 2026)

Key:
LOLRI [1] = assay: Post-emergence herbicidal action against LOLRI; type: in vivo, Lolium rigidum; details: dosage 20 g/ha
Summary of the method: (§1)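 Greenhouse pot plants in sandy loam were sprayed at the one-leaf stage, 2 to 3 weeks after sowing, with WP or EC formulations as aqueous suspension or emulsion (600 to 800 l/ha water, 0.2% wetting agent). About 3 weeks later, damage was scored visually against untreated controls as % action (100% = dead, 0% = like control).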

VERPE [2] = assay: Post-emergence herbicidal action against VERPE; type: in vivo, Veronica persica; details: 20 g/ha
Summary of the method: as §1

VERPE [3] = assay: Pre-emergence herbicidal action against VERPE; type: in vivo, Veronica persica; details: dosage 80 g/ha
Summary of the method: (§2)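 Visual rating at 3 weeks vs untreated pots; 0–100% scale, 100% = plants died. Treatment: aqueous WP/EC spray onto covering soil, 600–800 l/ha, 0.2% wetter, seeds in sandy loam.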

POLCO [4] = assay: Pre-emergence herbicidal action against POLCO; type: in vivo, Polygonum convolvulus; details: Fallopia convolvulus, 504 h, dosage 80 g/ha
Summary of the method: as §2

DIGSA [5] = assay: Post-emergence herbicidal action against DIGSA; type: in vivo, Digitaria sanguinalis
Summary of the method: as §1

AMARE [6] = assay: Pre-emergence herbicidal action against AMARE; type: in vivo, Amaranthus retroflexus
Summary of the method: as §2

SETVI [7] = assay: Pre-emergence herbicidal action against SETVI; type: in vivo, Setaria viridis
Summary of the method: as §2

VIOTR [8] = assay: Post-emergence herbicidal action against VIOTR; type: in vivo, Viola tricolor
Summary of the method: as §1

ECHCG [9] = assay: Pre-emergence herbicidal action against ECHCG; type: in vivo, Echinochloa crus-galli
Summary of the method: as §2

POLCO [10] = assay: Post-emergence herbicidal action against POLCO; type: in vivo, Polygonum convolvulus; details: dosage 20 g/ha
Summary of the method: as §1

AVEFA [11] = assay: Pre-emergence herbicidal action against AVEFA; type: in vivo, Avena fatua; details: Avena fatua, 504 h; 80 g/ha, pre-emergence
Summary of the method: as §2

VIOTR [12] = assay: Pre-emergence herbicidal action against VIOTR; type: in vivo, Viola tricolor
Summary of the method: as §2

PHBPU = assay: Post-emergence herbicidal action against PHBPU; type: in vivo, Pharbitis purpurea; details: dosage 20 g/ha
Summary of the method: as §1

ECHCG [13] = assay: Post-emergence herbicidal action against ECHCG; type: in vivo, Echinochloa crus-galli
Summary of the method: as §1

STEME [14] = assay: Pre-emergence herbicidal action against STEME; type: in vivo, Stellaria media
Summary of the method: as §2

SETVI [15] = assay: Post-emergence herbicidal action against SETVI; type: in vivo, Setaria viridis
Summary of the method: as §1

LOLRI [16] = assay: Pre-emergence herbicidal action against LOLRI; type: in vivo, Lolium rigidum; details: Lolium rigidum, 504 h, 80 g/ha
Summary of the method: as §2

AMARE [17] = assay: Post-emergence herbicidal action against AMARE; type: in vivo, Amaranthus retroflexus; details: 20 g/ha, visual assessment about 3 weeks after treatment, 100% = plants have died, 0% = like control plants
Summary of the method: as §1

STEME [18] = assay: Post-emergence herbicidal action against STEME; type: in vivo, Stellaria media
Summary of the method: as §1

ABUTH [19] = assay: Post-emergence herbicidal action against ABUTH; type: in vivo, Abutilon theophrasti; details: visual assessment about 3 weeks after treatment vs untreated controls
Summary of the method: as §1

DIGSA [20] = assay: Pre-emergence herbicidal action against DIGSA; type: in vivo, Digitaria sanguinalis
Summary of the method: as §2

ALOMY [21] = assay: Post-emergence herbicidal action against ALOMY; type: in vivo, Alopecurus myosuroides; details: dosage 20 g/ha, visual assessment about 3 weeks after treatment vs untreated controls
Summary of the method: as §1

MATIN [22] = assay: Pre-emergence herbicidal action against MATIN; type: in vivo, Matricaria inodora
Summary of the method: as §2

HORMU [23] = assay: Pre-emergence herbicidal action against HORMU; type: in vivo, Hordeum murinum; details: Hordeum murinum, 504 h; 80 g/ha, pre-emergence
Summary of the method: as §2

MATIN [24] = assay: Post-emergence herbicidal action against MATIN; type: in vivo, Matricaria inodora
Summary of the method: as §1

ABUTH [25] = assay: Pre-emergence herbicidal action against ABUTH; type: in vivo, Abutilon theophrasti
Summary of the method: as §2

ALOMY [26] = assay: Pre-emergence herbicidal action against ALOMY; type: in vivo, Alopecurus myosuroides; details: 80 g/ha, pre-emergence, scored visually after 3 weeks vs untreated controls (100% = plants have died, 0% = like control plants)
Summary of the method: as §2

HORMU [27] = assay: Post-emergence herbicidal action against HORMU; type: in vivo, Hordeum murinum; details: dosage 20 g/ha
Summary of the method: as §1

AVEFA [28] = assay: Post-emergence herbicidal action against AVEFA; type: in vivo, Avena fatua; details: 20 g/ha, visual assessment about 3 weeks after treatment, 100% = plants have died, 0% = like control plants
Summary of the method: as §1

[29] = Setaria viridis, 504 h, dosage 20 g/ha
[30] = Tripleurospermum inodorum, 504 h, dosage 20 g/ha
[31] = 80 g/ha, scored visually after 3 weeks vs untreated controls (100% = plants have died, 0% = like control plants)

CCNC(=O)c1c(C(F)(F)F)ccc(C(=O)Nc2nnnn2C)c1C [Example 1-26]
pest or weed control at 20 g/ha (LOLRI [1]; Lolium rigidum, 504 h): 80% | pest or weed control at 20 g/ha (VERPE [2]; Veronica persica, 504 h): 80% | pest or weed control at 80 g/ha (VERPE [3]; Veronica persica, 504 h): 80% | pest or weed control at 80 g/ha (POLCO [4]): 90% | pest or weed control at 5 g/ha (DIGSA [5]; Digitaria sanguinalis, 504 h, 5 g/ha): 90% | pest or weed control at 20 g/ha (DIGSA [5]; Digitaria sanguinalis, 504 h, 20 g/ha): 100% | pest or weed control at 20 g/ha (AMARE [6]; Amaranthus retroflexus, 504 h, 20 g/ha, scored visually after 3 weeks vs untreated controls, 100% = plants have died, 0% = like control plants): 100% | pest or weed control at 80 g/ha (AMARE [6]; Amaranthus retroflexus, 504 h, 80 g/ha, scored visually after 3 weeks vs untreated controls, 100% = plants have died, 0% = like control plants): 100% | pest or weed control at 20 g/ha (SETVI [7]; [29]): 80% | pest or weed control at 80 g/ha (SETVI [7]; Setaria viridis, 504 h, dosage 80 g/ha): 100% | pest or weed control at 5 g/ha (VIOTR [8]; Viola tricolor, 504 h, 5 g/ha): 100% | pest or weed control at 20 g/ha (VIOTR [8]; Viola tricolor, 504 h, 20 g/ha): 100% | pest or weed control at 20 g/ha (ECHCG [9]; Echinochloa crus-galli, 504 h, 20 g/ha): 80% | pest or weed control at 80 g/ha (ECHCG [9]; Echinochloa crus-galli, 504 h, 80 g/ha): 100% | pest or weed control at 20 g/ha (POLCO [10]; Fallopia convolvulus, 504 h): 90% | pest or weed control at 80 g/ha (AVEFA [11]): 100% | pest or weed control at 20 g/ha (VIOTR [12]; Viola tricolor, 504 h, dosage 20 g/ha): 90% | pest or weed control at 80 g/ha (VIOTR [12]; Viola tricolor, 504 h, dosage 80 g/ha): 100% | pest or weed control at 20 g/ha (PHBPU; Ipomoea purpurea, 504 h): 80% | pest or weed control at 20 g/ha (ECHCG [13]; Echinochloa crus-galli, 504 h, dosage 20 g/ha): 80% | pest or weed control at 20 g/ha (STEME [14]; Stellaria media, 504 h, dosage 20 g/ha): 100% | pest or weed control at 80 g/ha (STEME [14]; Stellaria media, 504 h, dosage 80 g/ha): 100% | pest or weed control at 5 g/ha (SETVI [15]; Setaria viridis, 504 h, dosage 5 g/ha): 100% | pest or weed control at 20 g/ha (SETVI [15]; [29]): 100% | pest or weed control at 80 g/ha (LOLRI [16]): 80% | pest or weed control at 20 g/ha (AMARE [17]; Amaranthus retroflexus, 504 h): 100% | pest or weed control at 20 g/ha (STEME [18]; Stellaria media, 504 h, 20 g/ha): 90% | pest or weed control at 5 g/ha (STEME [18]; Stellaria media, 504 h, dosage 5 g/ha): 90% | pest or weed control at 5 g/ha (ABUTH [19]; Abutilon theophrasti, 504 h, dosage 5 g/ha): 90% | pest or weed control at 20 g/ha (ABUTH [19]; Abutilon theophrasti, 504 h, dosage 20 g/ha): 100% | pest or weed control at 20 g/ha (DIGSA [20]; Digitaria sanguinalis, 504 h, dosage 20 g/ha): 100% | pest or weed control at 80 g/ha (DIGSA [20]; Digitaria sanguinalis, 504 h, dosage 80 g/ha): 100% | pest or weed control at 20 g/ha (ALOMY [21]; Alopecurus myosuroides, 504 h): 90% | pest or weed control at 20 g/ha (MATIN [22]; [30]): 100% | pest or weed control at 80 g/ha (MATIN [22]; Tripleurospermum inodorum, 504 h, dosage 80 g/ha): 100% | pest or weed control at 80 g/ha (HORMU [23]): 80% | pest or weed control at 5 g/ha (MATIN [24]; Tripleurospermum inodorum, 504 h, dosage 5 g/ha): 90% | pest or weed control at 20 g/ha (MATIN [24]; [30]): 90% | pest or weed control at 80 g/ha (ABUTH [25]; Abutilon theophrasti, 504 h, 80 g/ha, scored visually after 3 weeks vs untreated controls (100% = plants have died, 0% = like control plants)): 100% | pest or weed control at 20 g/ha (ABUTH [25]; Abutilon theophrasti, 504 h, dosage 20 g/ha, scored visually after 3 weeks vs untreated controls, 100% = plants have died, 0% = like control plants, read-out: Pre-emergence action against ABUTH (herbicidal activity in percent)): 100% | pest or weed control at 80 g/ha (ALOMY [26]; Alopecurus myosuroides, 504 h): 100%

CNC(=O)c1c(C(F)F)ccc(C(=O)Nc2nnco2)c1Cl [Example 5-122]
Post-emergence action against HORMU in % (HORMU [27]): 80% | Post-emergence action against LOLRI in % (LOLRI [1]): 80% | Post-emergence action against VERPE in % (VERPE [2]): 80% | Pre-emergence action against VERPE in % (VERPE [3]): 100% | Post-emergence action against DIGSA in % (DIGSA [5]; 5 g/ha): 90% | Post-emergence action against DIGSA (DIGSA [5]; 20 g/ha): 90% | Pre-emergence action against AMARE in % (AMARE [6]; 20 g/ha, scored visually after 3 weeks vs untreated controls, 100% = plants have died, 0% = like control plants): 80% | Pre-emergence action against AMARE in % (AMARE [6]; [31]): 100% | Pre-emergence action against SETVI in % (SETVI [7]; dosage 80 g/ha): 100% | Post-emergence action against VIOTR in % (VIOTR [8]; 5 g/ha): 90% | Post-emergence action against VIOTR in % (VIOTR [8]; 20 g/ha): 90% | Pre-emergence action against ECHCG in % (ECHCG [9]; 20 g/ha): 80% | Pre-emergence action against ECHCG in % (ECHCG [9]; 80 g/ha): 100% | Post-emergence action against POLCO in % (POLCO [10]): 80% | Pre-emergence action against VIOTR in % (VIOTR [12]; dosage 20 g/ha): 80% | Pre-emergence action against VIOTR in % (VIOTR [12]; dosage 80 g/ha): 100% | Post-emergence action against PHBPU in % (PHBPU): 90% | Post-emergence action against ECHCG in % (ECHCG [13]; dosage 5 g/ha): 90% | Post-emergence action against ECHCG in % (ECHCG [13]; dosage 20 g/ha): 90% | Pre-emergence action against STEME in % (STEME [14]; dosage 20 g/ha): 90% | Pre-emergence action against STEME in % (STEME [14]; dosage 80 g/ha): 90% | Post-emergence action against SETVI in % (SETVI [15]; dosage 5 g/ha): 80% | Post-emergence action against SETVI in % (SETVI [15]; dosage 20 g/ha): 90% | Post-emergence action at 20 g/ha against AMARE in % (AMARE [17]): 90% | Post-emergence action against STEME in % (STEME [18]; 20 g/ha): 100% | Post-emergence action against STEME in % (STEME [18]; dosage 5 g/ha): 90% | Post-emergence action against ABUTH in % (ABUTH [19]; dosage 5 g/ha): 80% | Post-emergence action against ABUTH in % (ABUTH [19]; dosage 20 g/ha): 90% | Pre-emergence action against DIGSA in % (DIGSA [20]; dosage 20 g/ha): 100% | Pre-emergence action against DIGSA in % (DIGSA [20]; dosage 80 g/ha): 100% | Post-emergence action against ALOMY in % (ALOMY [21]): 80% | Pre-emergence action against MATIN in % (MATIN [22]; dosage 80 g/ha): 90% | Post-emergence action at 20 g/ha against AVEFA in % (AVEFA [28]): 80% | Post-emergence action against MATIN in % (MATIN [24]; dosage 5 g/ha): 80% | Post-emergence action against MATIN in % (MATIN [24]; dosage 20 g/ha): 80% | Pre-emergence action against ABUTH (herbicidal activity) (ABUTH [25]; [31]): 100% | Pre-emergence action against ABUTH (herbicidal activity in percent) (ABUTH [25]; dosage 20 g/ha, scored visually after 3 weeks vs untreated controls, 100% = plants have died, 0% = like control plants): 90% | Pre-emergence action against ALOMY (herbicidal activity) (ALOMY [26]): 80%
